# Measured values reported in ChEMBL document CHEMBL5370535, “Thiazolyl hydrazineylidenyl indolones as unique potential multitargeting broad-spectrum antimicrobial agents” (Eur J Med Chem, 2023).
# Tests used:
# Type in all cases: functional
# Staphylococcus aureus [1] = assay: Antibacterial activity against methicillin-resistant Staphylococcus aureus assessed as bacterial growth inhibition incubated for 24 hrs by CLSI based two serial dilution assay
# Enterococcus faecalis = assay: Antibacterial activity against Enterococcus faecalis assessed as bacterial growth inhibition incubated for 24 hrs by CLSI based two serial dilution assay
# Staphylococcus aureus [2] = assay: Antibacterial activity against Staphylococcus aureus assessed as bacterial growth inhibition incubated for 24 hrs by CLSI based two serial dilution assay
# Staphylococcus aureus [3] = assay: Antibacterial activity against Staphylococcus aureus 25923 assessed as bacterial growth inhibition incubated for 24 hrs by CLSI based two serial dilution assay
# Staphylococcus aureus [4] = assay: Antibacterial activity against Staphylococcus aureus 29213 assessed as bacterial growth inhibition incubated for 24 hrs by CLSI based two serial dilution assay
# Klebsiella pneumoniae = assay: Antibacterial activity against Klebsiella pneumoniae assessed as bacterial growth inhibition incubated for 24 hrs by CLSI based two serial dilution assay
# Escherichia coli [5] = assay: Antibacterial activity against Escherichia coli assessed as bacterial growth inhibition incubated for 24 hrs by CLSI based two serial dilution assay
# Escherichia coli [6] = assay: Antibacterial activity against Escherichia coli 25922 assessed as bacterial growth inhibition incubated for 24 hrs by CLSI based two serial dilution assay
# Pseudomonas aeruginosa [7] = assay: Antibacterial activity against Pseudomonas aeruginosa assessed as bacterial growth inhibition incubated for 24 hrs by CLSI based two serial dilution assay
# Pseudomonas aeruginosa [8] = assay: Antibacterial activity against Pseudomonas aeruginosa ATCC 27853 assessed as bacterial growth inhibition incubated for 24 hrs by CLSI based two serial dilution assay
# Acinetobacter baumannii = assay: Antibacterial activity against Acinetobacter baumannii assessed as bacterial growth inhibition incubated for 24 hrs by CLSI based two serial dilution assay
# Candida albicans [9] = assay: Antifungal activity against Candida albicans assessed as inhibition of fungal growth incubated for 24 hrs by CLSI based two serial dilution assay
# Candida albicans [10] = assay: Antifungal activity against Candida albicans ATCC 90023 assessed as inhibition of fungal growth incubated for 24 hrs by CLSI based two serial dilution assay
# Candida tropicalis = assay: Antifungal activity against Candida tropicalis assessed as inhibition of fungal growth incubated for 24 hrs by CLSI based two serial dilution assay
# Candida parapsilosis = assay: Antifungal activity against Candida parapsilosis ATCC 22019 assessed as inhibition of fungal growth incubated for 24 hrs by CLSI based two serial dilution assay; details: Lodderomyces parapsilosis
# Aspergillus fumigatus = assay: Antifungal activity against Aspergillus fumigatus assessed as inhibition of fungal growth incubated for 24 hrs by CLSI based two serial dilution assay
SMILES,MIC (Staphylococcus aureus [1]) [µM],MIC (Enterococcus faecalis) [µM],MIC (Staphylococcus aureus [2]) [µM],MIC (Staphylococcus aureus [3]) [µM],MIC (Staphylococcus aureus [4]) [µM],MIC (Klebsiella pneumoniae) [µM],MIC (Escherichia coli [5]) [µM],MIC (Escherichia coli [6]) [µM],MIC (Pseudomonas aeruginosa [7]) [µM],MIC (Pseudomonas aeruginosa [8]) [µM],MIC (Acinetobacter baumannii) [µM],MIC (Candida albicans [9]) [µM],MIC (Candida albicans [10]) [µM],MIC (Candida tropicalis) [µM],MIC (Candida parapsilosis) [µM],MIC (Aspergillus fumigatus) [µM]
C#CCN1C(=O)/C(=N\Nc2nccs2)c2ccccc21,256,256,256,512,512,512,512,512,256,512,512,256,256,256,64,64
CCCCN1C(=O)/C(=N\Nc2nccs2)c2cc([N+](=O)[O-])ccc21,512,512,512,512,512,512,512,512,512,512,0.5,512,512,512,512,512
CCCCN1C(=O)/C(=N\Nc2nccs2)c2cc(Br)cc(Br)c21,1,0.5,16,0.5,16,0.5,1,1,1,512,512,0.5,1,1,128,512
CCCCCCCCN1C(=O)/C(=N\Nc2nccs2)c2ccccc21,512,32,512,512,512,512,512,256,64,128,512,512,256,512,128,512
CCCCCCN1C(=O)/C(=N\Nc2nccs2)c2ccccc21,64,4,16,32,2,16,64,16,4,32,16,32,64,16,64,32
O=C1Nc2ccccc2/C1=N/Nc1nccs1,128,128,512,128,128,512,256,128,512,128,64,256,128,256,64,32
CCCCN1C(=O)/C(=N\Nc2nc(-c3ccc(F)cc3F)cs2)c2ccccc21,512,512,4,512,4,512,512,512,2,512,512,512,512,512,512,512
CCN1C(=O)/C(=N\Nc2nccs2)c2ccccc21,32,32,64,64,16,64,32,64,2,512,512,64,128,64,64,32
